Active and inactive are the calls of the source.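 How the source made its calls: active means EC50 no more than a set limit of log units above the highest dose; inactive means the rest.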

Here are results for 91 molecules from PubChem BioAssay AID1902 (Broad Institute, 2009).

In this assay the target is S. pyogenes SKKanGAS, kanamycin survival, BacTiterGlo, 6 h. As to the kind of experiment: S. pyogenes SKKanGAS kanamycin growth inhibitors – SKKanGAS strain, luminescence, dose confirmation, streptokinase promoter inhibitor project, dose response (AID 1902).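 Further: lower survival reflects blocked streptokinase promoter driving kanamycin resistance gene.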
For the molecule `Nc1n[nH]c(C2CC2)c1N=Nc1ccc(Cl)c(Cl)c1`, the EC50 was 2.05 µM.
For the molecule `Oc1ccc(CN2CCc3ccccc3C2)c2cccnc12`, the EC50 is 4.09 µM.
Under `CC(C)(C)C1CCC2(CC1)C(C#N)=C(SCC(=O)Nc1ccccc1)NC(=O)C2C#N` (stereo unspecified) stands 4.25 µM; under `CC(C)(C)c1ccc(C(=O)Nc2ccc(F)cc2)s1`, > 15 µM (inactive); under `CC(C)(C)c1cc(Cl)c(O)c(NC(=S)NC(=O)c2cccnc2)c1`, 0.346 µM.
`CCN(CC)CCN(C(=O)C1=COCCO1)c1nc2cc(C)cc(C)c2s1`: the EC50 is > 15 µM (inactive).
For the molecule `Cc1ccc(C)c(-c2csc(N)c2C(=O)OC(C)C)c1`, the half-maximal effective concentration (EC50) was 3.11 µM.
As to `Cc1ccccc1/C=C/C(=O)c1ccc([N+](=O)[O-])o1`, the concentration for a half-maximal effect (EC50) was 4.61 µM.
Turning to `COc1ccc2[nH]c3c(=O)n(/N=C/c4ccc(OC)c(CN5CCCC5)c4)c(C)nc3c2c1`, the half-maximal effective concentration (EC50) is 7.06 µM.
Then `COc1ccccc1/C=C/c1ccc2cccc(O)c2n1`, with 1.18 µM; and `CC1CN(Cc2nc3c(c(=O)[nH]c(=O)n3C)n2CCCc2ccccc2)CC(C)O1` (stereo unspecified), with > 15 µM (inactive); and `CC(C)c1ccc(-c2cc(C(=O)N3N=C(C(F)F)CC3(O)C(F)F)c3ccccc3n2)cc1` (stereo unspecified), with 3.11 µM.
Take `COc1cc(Cl)cc(/C=C/c2ccc3cccc(O)c3n2)c1OC`: the concentration for a half-maximal effect (EC50) is 0.951 µM.
Regarding `CCCCCCCCCCCCCCCC[N+](C)(C)CC`, the concentration for a half-maximal effect (EC50) was 2.19 µM.
For the molecule `CCCCCn1c(N)c(-c2nc3ccccc3s2)c2c([N+](=O)[O-])nn(CC)c(=O)c21`, the concentration giving a half-maximal response (EC50) was 8.16 µM.
Under `Cc1ccc(OCCSc2nc(NC(C)C)nc(NC(C)C)n2)cc1` stands 4.4 µM; under `Cc1ccc(NC(=S)NC(=O)c2ccc(-c3ccc(Cl)cc3)o2)c(O)c1`, 0.531 µM; under `CC(=O)Oc1ccc(/C=N/NS(=O)(=O)c2ccccc2)cc1`, > 15 µM (inactive).
Under `COc1ccc(N=C2NN=C(c3c(C)[nH]c4ccccc34)CS2)cc1` stands 7.32 µM; under `Clc1ccc(-c2n[nH]c3c2CCC3)cc1Cl`, 12.6 µM; under `Cn1c2ccccc2c(=O)c2c(=O)n(-c3ccc(F)cc3)c(-c3cccs3)nc21`, 4.76 µM.
Regarding `CC1(C)Cc2nc3sc4c(OCc5ccccc5)ncnc4c3cc2CO1`, the EC50 is 4.19 µM.
With `CS(=O)(=O)c1ccc2nc(NC(=O)c3ccc(NS(=O)(=O)c4cccc([N+](=O)[O-])c4)cc3)sc2c1`, the concentration giving a half-maximal response (EC50) is 1.64 µM.
As to `CC(C)C[C@H](NC(=O)c1nc[nH]c1C(=O)NC1CCN(C(=O)OC(C)(C)C)CC1)C(=O)OCc1ccccc1`, the EC50 was 5.47 µM.
Then `O=C(Nc1nc(-c2ccccn2)cs1)c1ccc(S(=O)(=O)N2CCCCC2)cc1`, with 1.48 µM; and `Cn1cccc1C(=O)Nc1nc(-c2ccccn2)cs1`, with 12.4 µM.
Under `CC(C)(C)[C@@H]1CCC(=O)N(CC[C@H](Sc2ccccc2)c2ccccc2)CC1` stands 3.95 µM; under `O=C(N[C@H](CO)[C@H](O)c1ccc([N+](=O)[O-])cc1)C(Cl)Cl`, 0.973 µM; under `COc1ccc(-c2csc(NC(=S)NC(=O)c3cccs3)n2)cc1OC`, 13.9 µM.
With `COc1ccccc1CNC(=O)CSc1nc(=O)n(Cc2ccncc2)c2c1CCC2`, the EC50 is > 15 µM (inactive).
On to `Cc1ccc(-c2csc(NC(=O)c3ccc([N+](=O)[O-])o3)n2)cc1`, for which the concentration giving a half-maximal response (EC50) was 3.42 µM.
As to `O=C(NC1=NCCS1)c1cc(-c2ccccc2)nn1-c1ccccc1`, the EC50 was 6.06 µM.
As for `CC1(C)Cc2c(cnn2-c2ccccc2)-c2c1c1ccccc1n2CC(O)CCl` (stereo unspecified), the EC50 is 5.24 µM.
As for `O=C(Oc1cccc2c(O)cccc12)c1ccccc1`, the EC50 was > 15 µM (inactive).
With `CCCOc1ccc(/C=C/c2c([N+](=O)[O-])c(=O)n(C)c(=O)n2C)cc1`, the EC50 was 7.11 µM.
Under `CCOc1ccc2nc(NC(=O)CN3CCC(n4nnc5cc(C(F)(F)F)ccc54)CC3)sc2c1` stands 2.43 µM; under `O=C(CNc1ccc(F)cc1)N/N=C/c1c(O)ccc2ccccc12`, 1.12 µM.
On to `COc1cnc(-c2ccccn2)nc1Oc1ccc(Cl)c2ccccc12`, for which the concentration for a half-maximal effect (EC50) is 0.142 µM.
Under `CC1CCN(Cc2c(C(=O)N/N=C/c3cc(Cl)ccc3O)nnn2-c2nonc2N)CC1` stands 2.67 µM.
As for `CCCc1nc2ccccc2c(C(=O)OCC(=O)Nc2ccc(S(=O)(=O)N3CCOCC3)cc2)c1CC`, the EC50 was 7.15 µM.
Under `CC/C(=C/c1ccccc1)c1cccc2[nH]c3c(OC)cccc3c12` stands 2.49 µM; under `Cc1nn(CC(=O)NC2C(=O)N3C(C(=O)O)=C(CSc4nnnn4C)CSC23)cc1Br` (stereo unspecified), less than 0.06 µM.
Under `COC(=O)C1=NN(C(=O)c2cccc(Br)c2)C(O)(c2ccc(Cl)cc2)C1` (stereo unspecified) stands 1.29 µM; under `CCn1c(=O)c(C(=O)NNC(=O)c2ccccc2F)c(O)c2ccccc21`, 3.17 µM.
For the molecule `CCOc1ccc2nc(NC(=O)c3ccccn3)sc2c1`, the EC50 was 1.79 µM.
For `CO[C@H]1C=CO[C@@]2(C)Oc3c(C)c(O)c4c(O)c(c(C=NN5CCN(C)CC5)c(O)c4c3C2=O)NC(=O)C(C)=CC=C[C@H](C)[C@H](O)[C@@H](C)[C@@H](O)[C@@H](C)[C@H](OC(C)=O)[C@@H]1C`, the 50% effective concentration (EC50) was less than 0.06 µM.
Then `Brc1ccc(-c2cn3c(n2)CCc2ccc4cccnc4c2-3)cc1`, with 1.77 µM; and `CCOc1ccc(/C=N/NC(=S)NC2CC3C=CC2C3)cc1` (stereo unspecified), with > 15 µM (inactive); and `O=C(/C=C/c1ccccc1)NC(NC(=S)Nc1cccc(Cl)c1)C(Cl)(Cl)Cl` (stereo unspecified), with 1.85 µM.
Then `CC12CCC(C/C1=N\N=C1\NC(=O)/C(=C\c3ccc(Cl)cc3)S1)C2(C)C` (stereo unspecified), with 1.13 µM; and `Cc1cc(C)cc(C(=O)Nc2nc3ccccc3[nH]2)c1`, with 6.04 µM.
Turning to `COc1ccc(Br)cc1/C=C/C(=O)NC(=S)Nc1ccc(Cl)c(C(=O)O)c1`, the EC50 is 10.5 µM.
As to `CC(=O)Nc1nnc(S(=O)(=O)N2CCN(c3ccc(Cl)cc3[N+](=O)[O-])CC2)s1`, the EC50 was > 15 µM (inactive).
In the case of `N#C/C(=N\Nc1ccc(S(=O)(=O)N2CCc3ccccc32)cc1)C(N)=S`, the EC50 is 11.3 µM.
Then `CCS(=O)(=O)N1Cc2ccccc2CC1C(=O)Nc1nnc(SCc2ccc(F)cc2)s1` (stereo unspecified), with 2.35 µM; and `Clc1ccc(COn2c(-c3ccc(Cl)cc3)nc3ccccc32)cc1`, with 6.12 µM.
Under `COc1ccc(OC)c(/C=N/n2c(-c3n[nH]c4c3CCC4)n[nH]c2=S)c1` stands > 15 µM (inactive); under `CN(Cc1ccc(N(C)C)cc1)C(=O)c1cc2ccccc2o1`, > 15 µM (inactive).
Consider `[O-][n+]1cccc2c(Br)cc(Br)c(O)c21`, for which the 50% effective concentration (EC50) was 0.55 µM.
As to `O=C(COc1cccc(Cl)c1)Nc1ccccc1N1CCCCC1`, the EC50 was 5.29 µM.
On to `O=C(c1ccc2c3n(nc2c1)-c1ccccc1CO3)N1CCCCC1`, for which the concentration for a half-maximal effect (EC50) is 9.38 µM.
For the molecule `CCCCN(CC)S(=O)(=O)c1ccc(C(=O)Nc2nnc(-c3ccccc3Cl)o2)cc1`, the EC50 was 0.226 µM.
For `CC(C)Cc1csc(NC(=O)c2ccc(Br)cc2)c1C(=O)O`, the EC50 was 1.57 µM.
Take `Cc1ccc(NC(=O)c2cccc(OCc3c(C)noc3C)c2)cc1S(=O)(=O)Nc1ccccc1Cl`: the EC50 was 7.39 µM.
Turning to `CCN(CC)S(=O)(=O)c1cc(OC)ccc1N=Nc1ccc(O)c2ncccc12`, the half-maximal effective concentration (EC50) was 1.92 µM.
For the molecule `CN(c1ccccc1)c1nc(N2CCCC2)nc(-n2ccnc2)n1`, the EC50 was 10.8 µM.
For `Cc1ccc2nc(Nc3nc(-c4ccccc4)cc(=O)[nH]3)nc(C)c2c1`, the EC50 is 2.64 µM.
As for `Cc1cc(NC(c2ccc(Cl)cc2)c2ccc3cccnc3c2O)no1` (stereo unspecified), the EC50 is 0.602 µM.
Consider `CCC1CCCCN1S(=O)(=O)c1ccc(C(=O)Nc2nnc(C3CC3)o2)cc1` (stereo unspecified), for which the half-maximal effective concentration (EC50) is 2.23 µM.
`Cc1c(C(=O)N2CCC(Cc3ccccc3)CC2)sc2ncnc(N3CCC(C)CC3)c12`: the EC50 is 6.31 µM.
Under `O=C(N/N=C/c1ccc([N+](=O)[O-])o1)c1cn(-c2ccccc2)nc1-c1ccc(F)cc1` stands 1.16 µM; under `Cc1cccc(NS(=O)(=O)c2ccc(C3CCCCC3)cc2)c1`, 4.82 µM; under `O=C(NC(NC(=S)Nc1c(Cl)cc(Cl)cc1Cl)C(Cl)(Cl)Cl)OCc1ccccc1` (stereo unspecified), 0.978 µM.
Under `CCCn1nnnc1NC(=O)c1ccc2ccccc2c1` stands 1.01 µM.
Under `O=C(Nc1cccc(S(=O)(=O)Nc2ccc(Cl)cc2)c1)c1cc2c(s1)CCCC2` stands 1.3 µM.
`Cc1onc(-c2ccccc2)c1C(=O)NNC(=S)NC(=O)c1ccc(Cl)cc1Cl`: the EC50 is 0.615 µM.
Regarding `COc1ccc(N2CC(C(=O)Nc3nnc(SCc4cccnc4)s3)CC2=O)cc1` (stereo unspecified), the EC50 is > 15 µM (inactive).
Take `CCCc1ccc(-c2cc(N)n[nH]2)cc1`: the 50% effective concentration (EC50) is 4.89 µM.
Under `COC(=O)c1cccc(NC(=S)NCc2ccc(Cl)cc2)c1` stands 9.26 µM; under `Cc1ccc(C(c2cc(Cl)c3cccnc3c2O)N2CCN(C)CC2)cc1` (stereo unspecified), 1.84 µM.
On to `O=C(Nc1ccccc1Sc1ccccc1)c1ccccc1F`, for which the EC50 is 4.53 µM.
Take `Cc1ccccc1NS(=O)(=O)c1ccc(C)c(C(=O)N2CCOCC2)c1`: the EC50 was > 15 µM (inactive).
In the case of `CC(=O)O[C@H]1C[C@@]2(C)[C@@H](C[C@@H](O)[C@H]3[C@@]4(C)CC[C@@H](O)[C@@H](C)[C@@H]4CC[C@@]32C)/C1=C(\CCC=C(C)C)C(=O)O`, the EC50 was 0.177 µM.
Then `COc1ccc(OC)c(NC(=O)NCc2cccnc2)c1`, with > 15 µM (inactive); and `Nc1nc(NCCOCCO)nc(N2CCCCCC2)c1[N+](=O)[O-]`, with 5.78 µM; and `CC(C)NC(=S)NC(c1ccccc1)(c1ccccc1)c1ccccc1`, with 4.87 µM.
For `COc1cccc(C(=O)Nc2nc(-c3ccccc3)c(-c3ccccc3)o2)c1`, the EC50 was 0.881 µM.
As for `O=Nc1c2cc(-c3ccccc3)[nH]nc-2c2ccccc12`, the 50% effective concentration (EC50) is 6.43 µM.
Take `CC[C@H]1OC(=O)[C@H](C)[C@@H](O[C@H]2C[C@@](C)(OC)[C@@H](O)[C@H](C)O2)[C@H](C)[C@@H](O[C@@H]2O[C@H](C)C[C@H](N(C)C)[C@H]2O)[C@](C)(O)C[C@@H](C)C(=O)[C@H](C)[C@@H](O)[C@]1(C)O`: the EC50 was less than 0.06 µM.
As for `COc1ccc(C(=O)NCC(=O)OCC(=O)N2N=C(c3ccc(Cl)cc3)CC2c2ccco2)cc1OC` (stereo unspecified), the EC50 is 15.6 µM.
As for `N=c1c2c(-c3ccccc3)c(-c3ccccc3)oc2ncn1Cc1ccco1`, the EC50 was 3.27 µM.

What is called EC50 is the concentration giving half of the maximal effect.
